Toxic doses and inconclusive results are not listed.
System: L1210 leukemia ip in BDF1 mice, survival T/C
Test: NCI In Vivo Anticancer Drug Screen. Data for tumor model L1210 Leukemia (intraperitoneal) in B6D2F1 (BDF1) mice
Conditions: endpoint: mean survival time, higher = longer survival
Method in brief: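 In this screen, tumor-bearing mice given compound are compared to those given vehicle, and their survival values are reported as a treated-to-control quotient.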

[1] = dose: 20.0 mg/kg/injection, schedule: Q04DX003 (ip), vehicle: Klucel (hydroxypropylcellulose) (HPC)
[2] = dose: 100.0 mg/kg/injection, schedule: Q04DX003 (ip), vehicle: Klucel (hydroxypropylcellulose) (HPC)
[3] = dose: 200.0 mg/kg/injection, schedule: Q04DX003 (ip), vehicle: Klucel (hydroxypropylcellulose) (HPC)
[4] = dose: 100.0 mg/kg/injection, schedule: Q04DX003 (ip), vehicle: saline with Tween-80
[5] = dose: 200.0 mg/kg/injection, schedule: Q04DX003 (ip), vehicle: saline with Tween-80
[6] = dose: 100.0 mg/kg/injection, schedule: Q01DX009 (ip), vehicle: Klucel (hydroxypropylcellulose) (HPC)
[7] = dose: 400.0 mg/kg/injection, schedule: Q04DX003 (ip), vehicle: Klucel (hydroxypropylcellulose) (HPC)
[8] = dose: 100.0 mg/kg/injection, schedule: Q01DX001 (ip), vehicle: saline
[9] = dose: 200.0 mg/kg/injection, schedule: Q01DX001 (ip), vehicle: saline
[10] = dose: 400.0 mg/kg/injection, schedule: Q01DX001 (ip), vehicle: saline
[11] = dose: 100.0 mg/kg/injection, schedule: Q04DX002 (ip), vehicle: saline with Tween-80
[12] = dose: 200.0 mg/kg/injection, schedule: Q04DX002 (ip), vehicle: saline with Tween-80
[13] = dose: 100.0 mg/kg/injection, schedule: Q04DX003 (ip), vehicle: saline
[14] = dose: 200.0 mg/kg/injection, schedule: Q04DX003 (ip), vehicle: saline
[15] = dose: 400.0 mg/kg/injection, schedule: Q04DX003 (ip), vehicle: saline with Tween-80

O=C1C=C(N2CC2)c2ccccc2C1=O
T/C (dose: 2.5 mg/kg/injection, schedule: Q01DX009 (ip), vehicle: Klucel (hydroxypropylcellulose) (HPC)): 101 % of control
T/C (dose: 2.5 mg/kg/injection, schedule: Q04DX003 (ip), vehicle: Klucel (hydroxypropylcellulose) (HPC)): 104 % of control
T/C (dose: 5.0 mg/kg/injection, schedule: Q01DX009 (ip), vehicle: Klucel (hydroxypropylcellulose) (HPC)): 96 % of control
T/C (dose: 5.0 mg/kg/injection, schedule: Q04DX003 (ip), vehicle: Klucel (hydroxypropylcellulose) (HPC)): 104 % of control
T/C (dose: 10.0 mg/kg/injection, schedule: Q01DX009 (ip), vehicle: Klucel (hydroxypropylcellulose) (HPC)): 100 % of control
T/C (dose: 10.0 mg/kg/injection, schedule: Q04DX003 (ip), vehicle: Klucel (hydroxypropylcellulose) (HPC)): 102 % of control
T/C (dose: 20.0 mg/kg/injection, schedule: Q01DX001 (ip), vehicle: Klucel (hydroxypropylcellulose) (HPC)): 105 % of control
T/C (dose: 20.0 mg/kg/injection, schedule: Q01DX009 (ip), vehicle: Klucel (hydroxypropylcellulose) (HPC)): 104 % of control
T/C [1]: 109 % of control

Cc1ccc(C2=C(c3ccc(C)cc3)CS(=O)(=O)C2)cc1
T/C (dose: 100.0 mg/kg/injection, schedule: Q01DX001 (ip), vehicle: saline with Tween-80): 95 % of control
T/C (dose: 200.0 mg/kg/injection, schedule: Q01DX001 (ip), vehicle: saline with Tween-80): 168 % of control
T/C (dose: 400.0 mg/kg/injection, schedule: Q01DX001 (ip), vehicle: saline with Tween-80): 244 % of control

C[CH2][Ge]([CH2]C)[O][Ge]([CH2]C)[CH2]C
T/C (dose: 5.0 mg/kg/injection, schedule: Q04DX002 (ip), vehicle: saline with Tween-80): 95 % of control
T/C (dose: 10.0 mg/kg/injection, schedule: Q04DX002 (ip), vehicle: saline with Tween-80): 100 % of control
T/C (dose: 20.0 mg/kg/injection, schedule: Q04DX002 (ip), vehicle: saline with Tween-80): 95 % of control

O=C(O)/C=C/c1ccccn1
T/C [1]: 102 % of control
T/C (dose: 40.0 mg/kg/injection, schedule: Q04DX003 (ip), vehicle: Klucel (hydroxypropylcellulose) (HPC)): 100 % of control
T/C (dose: 80.0 mg/kg/injection, schedule: Q04DX003 (ip), vehicle: Klucel (hydroxypropylcellulose) (HPC)): 94 % of control
T/C [2]: 93 % of control
T/C [3]: 100 % of control

CC(C)N1CNC(=O)C12CCN(CC1COc3ccccc3O1)CC2 (stereo not given)
T/C [4]: 104 % of control
T/C [5]: 106 % of control

CCC(C)(C)c1ccc(O)c(C(C)(C)CC)c1
T/C [6]: 96 % of control
T/C [2]: 100 % of control
T/C (dose: 200.0 mg/kg/injection, schedule: Q01DX009 (ip), vehicle: Klucel (hydroxypropylcellulose) (HPC)): 96 % of control
T/C [3]: 89 % of control
T/C (dose: 400.0 mg/kg/injection, schedule: Q01DX009 (ip), vehicle: Klucel (hydroxypropylcellulose) (HPC)): 96 % of control
T/C [7]: 87 % of control

O=C(O)c1ccc2c(c1Sc1ccccc1)C(=O)c1ccccc1C2=O
T/C (dose: 75.0 mg/kg/injection, schedule: Q01DX001 (ip), vehicle: saline): 104 % of control
T/C (dose: 150.0 mg/kg/injection, schedule: Q01DX001 (ip), vehicle: saline): 107 % of control
T/C (dose: 300.0 mg/kg/injection, schedule: Q01DX001 (ip), vehicle: saline): 91 % of control

COC1OCC(COC(=O)c2ccc([N+](=O)[O-])cc2)C1OC(=O)c1ccc([N+](=O)[O-])cc1 (stereo not given)
T/C (dose: 100.0 mg/kg/injection, schedule: Q01DX001 (ip), vehicle: carboxymethylcellulose (CMC)): 88 % of control
T/C (dose: 200.0 mg/kg/injection, schedule: Q01DX001 (ip), vehicle: carboxymethylcellulose (CMC)): 88 % of control

O=[N+]([O-])c1ccc(O)c(N=Cc2ccccn2)c1
T/C [8]: 90 % of control
T/C [9]: 90 % of control
T/C [10]: 100 % of control

OC1CC23C(O)CCCC12C1C=CC3C1 (stereo not given)
T/C (dose: 25.0 mg/kg/injection, schedule: Q04DX002 (ip), vehicle: saline with Tween-80): 95 % of control
T/C (dose: 50.0 mg/kg/injection, schedule: Q04DX002 (ip), vehicle: saline with Tween-80): 98 % of control
T/C [11]: 98 % of control
T/C [12]: 98 % of control

CCCCCCCCCC(=O)N/N=C\c1cccc2ccccc12
T/C (dose: 25.0 mg/kg/injection, schedule: Q01DX009 (ip), vehicle: Klucel (hydroxypropylcellulose) (HPC)): 90 % of control
T/C (dose: 50.0 mg/kg/injection, schedule: Q01DX009 (ip), vehicle: Klucel (hydroxypropylcellulose) (HPC)): 103 % of control
T/C [6]: 87 % of control

CCCCCCC(C)NCC(O)COc1cccc(C)c1 (stereo not given)
T/C (dose: 12.5 mg/kg/injection, schedule: Q01DX009 (ip), vehicle: saline with Tween-80): 94 % of control
T/C (dose: 25.0 mg/kg/injection, schedule: Q01DX009 (ip), vehicle: saline with Tween-80): 97 % of control

CCOC(=O)N1CCN(CCO)CC1
T/C [13]: 102 % of control
T/C [14]: 94 % of control

N#CC1CC2c3ccccc3C1c1ccccc12 (stereo not given)
T/C [4]: 97 % of control
T/C [5]: 94 % of control
T/C [15]: 100 % of control

C=CC1CNCCC1CC(=O)OCC (stereo not given)
T/C (dose: 50.0 mg/kg/injection, schedule: Q04DX003 (ip), vehicle: saline): 97 % of control
T/C [8]: 95 % of control
T/C [13]: 95 % of control
T/C [9]: 91 % of control
T/C [14]: 111 % of control

O=c1c2ccccc2c2ccccc2n1C(c1ccccc1)c1ccccc1
T/C [2]: 98 % of control
T/C [3]: 88 % of control
T/C [7]: 88 % of control

CC(CCOCC1CO1)OCC1CO1 (stereo not given)
T/C (dose: 100.0 mg/kg/injection, schedule: Q01DX009 (ip), vehicle: saline): 101 % of control
T/C [13]: 106 % of control
T/C (dose: 200.0 mg/kg/injection, schedule: Q01DX009 (ip), vehicle: saline): 113 % of control
T/C [14]: 105 % of control
T/C (dose: 400.0 mg/kg/injection, schedule: Q01DX009 (ip), vehicle: saline): 120 % of control
T/C (dose: 400.0 mg/kg/injection, schedule: Q04DX003 (ip), vehicle: saline): 120 % of control

COC(=O)c1cc(=O)nc2n1C1OC(CO)C(O)C1O2 (stereo not given)
T/C [8]: 95 % of control
T/C [9]: 101 % of control
T/C [10]: 93 % of control

Nc1cc2c3ccccc3ncc2c2ccccc12
T/C (dose: 100.0 mg/kg/injection, schedule: Q01DX009 (ip), vehicle: saline with Tween-80): 106 % of control
T/C [4]: 104 % of control
T/C (dose: 200.0 mg/kg/injection, schedule: Q01DX009 (ip), vehicle: saline with Tween-80): 108 % of control
T/C [5]: 94 % of control
T/C (dose: 400.0 mg/kg/injection, schedule: Q01DX009 (ip), vehicle: saline with Tween-80): 108 % of control
T/C [15]: 105 % of control

COC(=O)c1cc(NC(=O)Nc2cc(C(F)(F)F)ccc2Cl)cc(C(=O)OC)c1
T/C (dose: 100.0 mg/kg/injection, schedule: Q04DX002 (ip), vehicle: Klucel (hydroxypropylcellulose) (HPC)): 112 % of control
T/C (dose: 200.0 mg/kg/injection, schedule: Q04DX002 (ip), vehicle: Klucel (hydroxypropylcellulose) (HPC)): 105 % of control
T/C (dose: 400.0 mg/kg/injection, schedule: Q04DX002 (ip), vehicle: Klucel (hydroxypropylcellulose) (HPC)): 105 % of control

O=C(Cc1ccccc1)NCc1ccc(Cl)cc1
T/C [11]: 96 % of control
T/C [12]: 101 % of control
T/C (dose: 400.0 mg/kg/injection, schedule: Q04DX002 (ip), vehicle: saline with Tween-80): 114 % of control

COc1c2c([n+](C)c3c(OC)cccc13)OC(C(C)C)C2 (stereo not given)
T/C (dose: 0.5 mg/kg/injection, schedule: Q01DX009 (ip), vehicle: acetone): 100 % of control
T/C (dose: 0.75 mg/kg/injection, schedule: Q01DX009 (ip), vehicle: saline): 103 % of control
T/C (dose: 1.0 mg/kg/injection, schedule: Q01DX001 (ip), vehicle: saline): 96 % of control
T/C (dose: 1.0 mg/kg/injection, schedule: Q01DX009 (ip), vehicle: acetone): 120 % of control
T/C (dose: 1.0 mg/kg/injection, schedule: Q04DX003 (ip), vehicle: Klucel (hydroxypropylcellulose) (HPC)): 97 % of control
T/C (dose: 1.0 mg/kg/injection, schedule: Q04DX003 (ip), vehicle: acetone): 108 % of control
T/C (dose: 1.5 mg/kg/injection, schedule: Q01DX009 (ip), vehicle: saline): 92 % of control
T/C (dose: 2.0 mg/kg/injection, schedule: Q01DX001 (ip), vehicle: saline): 96 % of control
T/C (dose: 2.0 mg/kg/injection, schedule: Q04DX003 (ip), vehicle: Klucel (hydroxypropylcellulose) (HPC)): 105 % of control
T/C (dose: 2.0 mg/kg/injection, schedule: Q04DX003 (ip), vehicle: acetone): 119 % of control
T/C (dose: 4.0 mg/kg/injection, schedule: Q01DX001 (ip), vehicle: saline): 98 % of control
